The values below are quoted from earlier work in publication PMC3280530, “Marine Compounds Selectively Induce Apoptosis in Female Reproductive Cancer Cells but Not in Primary-Derived Human Reproductive Granulosa Cells” (Marine Drugs, 2012).

SMILES strings stand for the structures.

In this data set the test system is caspase-3 and -7 in the Jurkat cell line. Set-up: method as in PMID 17088067. Conditions: after 5 h; cited from earlier work.

On to `O=C1Nc2c(cc(Br)c(Br)c2Br)C1=O` [5,6,7-tribromoisatin], for which the “concentration activating caspase-3 and -7” value is recorded as 8 µM.
